Common to all, as to experiment: KINOMEscan competition binding
In one test the target is JNK2 (Homo sapiens, UniProt P45984). The settings on record: read-out: %Inh JNK2.
The next test has as its target T1, BRSK1 (Homo sapiens, UniProt Q8TDC3).
T1 sequence (Q8TDC3 1-778): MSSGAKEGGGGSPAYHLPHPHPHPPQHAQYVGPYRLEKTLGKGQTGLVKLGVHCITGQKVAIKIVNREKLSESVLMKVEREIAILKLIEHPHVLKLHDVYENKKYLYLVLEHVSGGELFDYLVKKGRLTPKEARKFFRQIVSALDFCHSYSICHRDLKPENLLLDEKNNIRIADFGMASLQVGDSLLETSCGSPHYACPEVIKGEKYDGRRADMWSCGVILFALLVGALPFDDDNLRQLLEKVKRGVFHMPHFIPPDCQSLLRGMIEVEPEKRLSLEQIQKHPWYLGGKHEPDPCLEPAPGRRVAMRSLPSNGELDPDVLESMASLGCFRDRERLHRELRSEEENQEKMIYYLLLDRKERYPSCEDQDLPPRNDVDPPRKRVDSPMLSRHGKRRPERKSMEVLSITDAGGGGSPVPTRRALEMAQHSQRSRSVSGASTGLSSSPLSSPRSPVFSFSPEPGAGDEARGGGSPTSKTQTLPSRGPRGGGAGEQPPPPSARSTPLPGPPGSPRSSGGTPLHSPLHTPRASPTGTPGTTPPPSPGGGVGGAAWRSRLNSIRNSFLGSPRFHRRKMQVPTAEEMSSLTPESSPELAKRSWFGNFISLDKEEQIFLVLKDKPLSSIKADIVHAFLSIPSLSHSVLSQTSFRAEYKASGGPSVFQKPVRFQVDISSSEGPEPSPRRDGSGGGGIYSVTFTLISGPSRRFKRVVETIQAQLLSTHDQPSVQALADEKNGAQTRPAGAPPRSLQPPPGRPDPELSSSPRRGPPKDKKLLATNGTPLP
The settings on record: read-out: %Inh BRSK1.

For another test, the target named is T2, LATS2 (Homo sapiens, UniProt Q9NRM7).
T2 sequence (Q9NRM7 1-1088): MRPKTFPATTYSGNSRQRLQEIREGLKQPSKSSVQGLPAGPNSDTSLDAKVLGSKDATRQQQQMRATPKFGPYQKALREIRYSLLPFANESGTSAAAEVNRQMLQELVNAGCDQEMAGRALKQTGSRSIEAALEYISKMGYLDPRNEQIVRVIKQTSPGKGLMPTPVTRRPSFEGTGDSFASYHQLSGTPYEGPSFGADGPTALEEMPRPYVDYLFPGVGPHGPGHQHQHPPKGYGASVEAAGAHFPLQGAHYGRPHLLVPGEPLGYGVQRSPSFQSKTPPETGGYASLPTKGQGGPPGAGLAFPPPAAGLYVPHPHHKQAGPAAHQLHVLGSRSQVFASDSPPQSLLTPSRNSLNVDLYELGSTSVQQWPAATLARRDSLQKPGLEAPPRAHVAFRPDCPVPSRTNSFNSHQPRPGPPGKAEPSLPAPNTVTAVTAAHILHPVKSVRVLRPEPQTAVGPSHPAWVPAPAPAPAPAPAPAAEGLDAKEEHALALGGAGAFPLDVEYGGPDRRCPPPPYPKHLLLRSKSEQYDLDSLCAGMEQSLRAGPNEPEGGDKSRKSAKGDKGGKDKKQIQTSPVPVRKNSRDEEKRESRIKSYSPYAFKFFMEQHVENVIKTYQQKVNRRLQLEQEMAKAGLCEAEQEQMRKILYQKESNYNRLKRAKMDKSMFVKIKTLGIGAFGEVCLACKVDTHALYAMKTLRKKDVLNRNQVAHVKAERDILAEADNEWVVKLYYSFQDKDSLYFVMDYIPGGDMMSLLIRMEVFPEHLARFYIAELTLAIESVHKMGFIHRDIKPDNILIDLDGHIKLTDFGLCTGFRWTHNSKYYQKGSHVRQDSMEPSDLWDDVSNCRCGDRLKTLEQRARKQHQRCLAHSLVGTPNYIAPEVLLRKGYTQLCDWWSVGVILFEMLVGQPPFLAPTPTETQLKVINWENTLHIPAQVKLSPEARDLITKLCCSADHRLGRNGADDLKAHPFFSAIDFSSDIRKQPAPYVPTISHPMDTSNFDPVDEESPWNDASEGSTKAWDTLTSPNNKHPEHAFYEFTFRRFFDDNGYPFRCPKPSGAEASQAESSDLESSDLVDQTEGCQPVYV
The settings on record: read-out: %Inh LATS2.

The next test concerns the target CSK (Homo sapiens, UniProt P41240). The settings on record: read-out: %Inh CSK.
Another test addresses T3, EPHA8 (Homo sapiens, UniProt P29322).
T3 sequence (P29322 28-1005): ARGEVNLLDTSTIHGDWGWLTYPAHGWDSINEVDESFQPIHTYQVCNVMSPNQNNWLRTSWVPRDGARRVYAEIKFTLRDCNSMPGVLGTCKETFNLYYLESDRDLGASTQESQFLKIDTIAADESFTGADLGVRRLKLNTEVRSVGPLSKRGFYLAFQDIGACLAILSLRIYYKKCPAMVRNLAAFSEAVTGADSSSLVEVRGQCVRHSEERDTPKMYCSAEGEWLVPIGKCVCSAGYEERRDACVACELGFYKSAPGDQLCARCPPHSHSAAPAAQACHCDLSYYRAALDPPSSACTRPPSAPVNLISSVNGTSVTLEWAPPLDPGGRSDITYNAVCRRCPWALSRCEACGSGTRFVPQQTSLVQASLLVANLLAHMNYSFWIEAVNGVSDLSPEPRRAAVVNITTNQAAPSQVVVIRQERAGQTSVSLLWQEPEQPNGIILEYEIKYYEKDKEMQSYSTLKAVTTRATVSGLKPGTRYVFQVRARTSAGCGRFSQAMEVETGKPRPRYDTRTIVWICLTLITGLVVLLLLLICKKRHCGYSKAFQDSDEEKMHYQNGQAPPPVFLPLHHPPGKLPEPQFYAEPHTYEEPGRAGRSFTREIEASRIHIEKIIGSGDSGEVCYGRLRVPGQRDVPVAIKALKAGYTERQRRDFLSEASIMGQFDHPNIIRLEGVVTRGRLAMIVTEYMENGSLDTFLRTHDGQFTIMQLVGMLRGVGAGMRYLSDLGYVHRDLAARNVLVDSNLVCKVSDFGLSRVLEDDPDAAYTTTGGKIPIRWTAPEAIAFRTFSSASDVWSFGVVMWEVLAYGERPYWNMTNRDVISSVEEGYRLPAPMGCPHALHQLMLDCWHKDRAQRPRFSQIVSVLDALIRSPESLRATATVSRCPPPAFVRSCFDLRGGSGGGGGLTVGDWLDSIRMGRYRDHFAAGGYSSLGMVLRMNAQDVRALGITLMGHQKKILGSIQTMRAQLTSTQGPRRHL
As to conditions: read-out: %Inh EPHA8.

Chain of CSK (P41240 whole entry): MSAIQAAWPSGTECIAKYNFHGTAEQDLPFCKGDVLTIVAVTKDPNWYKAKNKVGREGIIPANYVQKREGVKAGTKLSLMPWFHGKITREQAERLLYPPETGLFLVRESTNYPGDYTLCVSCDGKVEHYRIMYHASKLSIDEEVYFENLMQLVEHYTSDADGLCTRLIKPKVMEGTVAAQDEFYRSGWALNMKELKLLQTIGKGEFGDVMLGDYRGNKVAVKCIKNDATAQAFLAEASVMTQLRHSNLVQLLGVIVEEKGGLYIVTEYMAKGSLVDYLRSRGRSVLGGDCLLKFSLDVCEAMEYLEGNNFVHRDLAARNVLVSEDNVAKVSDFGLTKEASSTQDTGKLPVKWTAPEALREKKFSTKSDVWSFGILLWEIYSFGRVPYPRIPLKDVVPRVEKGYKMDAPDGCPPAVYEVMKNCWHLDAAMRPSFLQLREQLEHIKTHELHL
Chain of JNK2 (P45984 whole entry): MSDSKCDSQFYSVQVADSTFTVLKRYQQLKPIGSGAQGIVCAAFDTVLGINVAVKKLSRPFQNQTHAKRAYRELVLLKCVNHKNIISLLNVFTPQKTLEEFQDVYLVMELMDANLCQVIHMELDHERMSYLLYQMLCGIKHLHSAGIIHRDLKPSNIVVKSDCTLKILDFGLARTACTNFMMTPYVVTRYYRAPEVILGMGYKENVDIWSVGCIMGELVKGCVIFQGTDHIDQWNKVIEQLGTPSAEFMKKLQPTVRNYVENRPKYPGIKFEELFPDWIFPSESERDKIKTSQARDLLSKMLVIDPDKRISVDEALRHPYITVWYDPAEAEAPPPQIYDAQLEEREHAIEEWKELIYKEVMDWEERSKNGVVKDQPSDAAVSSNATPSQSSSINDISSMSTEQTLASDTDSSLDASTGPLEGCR

In the case of `O=c1cc(N2CCOCC2)nc2n(Cc3cccc(Cl)c3Cl)c(C3CC3)nn12` [UNC10225469A], the inhibition at 1 µM on JNK2 was 0%; on BRSK1, 3%; on LATS2 it was 27%; on CSK it was 8%; at EPHA8, 9%.

Take `COc1cccc(OC)c1C(=O)Nc1cccc(-c2nn3ccccc3c2-c2ccnc(Nc3cccc(F)c3)n2)c1` [UNC10225310A]: the inhibition at 1 µM at JNK2 came to 0%; on BRSK1 it was 0%; on LATS2 it was 10%; at CSK, 18%; at EPHA8, 17%.

For the molecule `CS(=O)(=O)Cc1ccc(Nc2nccc(-c3c(-c4cccc(NC(=O)C5CCCCC5)c4)nn4ncccc34)n2)cc1` [UNC10225159A], the inhibition at 1 µM at JNK2 was 49%; at BRSK1 it was 0%; on LATS2, 48%; at CSK it was 10%; at EPHA8, 15%.

With `Cc1ccc(NC(=O)Nc2cccc(C(F)(F)F)c2)cc1` [UNC10225187A], the inhibition at 1 µM at JNK2 turned out to be 26%; at BRSK1, 0%; at LATS2, 20%; on CSK, 28%; at EPHA8, 3%.

As to `Cn1cc(-c2cnc(N)c3c(-c4ccc5c(c4)CCN5C(=O)Cc4ccccc4)csc23)cn1` [UNC10225012A], the inhibition at 1 µM was 0% at JNK2; 0% at BRSK1; 23% at LATS2; 20% at CSK; 8% at EPHA8.

The record behind these values is PMC5540273, “Progress towards a public chemogenomic set for protein kinases and a call for contributions” (PLoS ONE, 2017).
